Here are results for two compounds from patent publication US20250257034A1, “INDOLE DERIVATIVES AS SEROTONERGIC AGENTS USEFUL FOR THE TREATMENT OF DISORDERS RELATED THERETO” (priority 2023, published 2025).

What is called IC50 is the point on the concentration scale where inhibition reaches its midpoint. A high value points to weaker potency.

A short description of series [1]: Pharmacokinetic studies in rat (i.v.). The series is classed as in vivo. To be noted: rat plasma; for Apparent t1/2 / half-life: estimated from 2 points only; for concentration at 0.25 h / concentration at 1 h / concentration at 4 h / half-life / AUC(0-t): male, Sprague-Dawley, rat, plasma, iv; for concentration at 0.25 h / concentration at 1 h / concentration at 4 h: read-out: Plasma concentration; for half-life: read-out: Apparent t1/2 (converted); for AUC(0-t): read-out: AUC0-tlast. Here is the method: Animals: Male Sprague-Dawley rats (˜225-350 g) from Charles River Labs were acclimatized for a minimum of 5 days prior to start of study procedures. Body weights were recorded on the day of dosing.
Any abnormalities were documented including presence/absence of wet dog shakes/back muscle contractions (WDS/BMC).
Dosing: Formulations were administered intravenously (i.v.) via the tail vein using a 25 G needle connected to a 1 cc syringe.
The Compounds of Formula (I) were freshly prepared at the appropriate concentrations in 5% Tween-80 in saline.
Blood collection time (h): 0.25, 1 and 4.
Volume/time-point: ˜0.25 mL […] (saphenous vein).
Instrumentation: AB Sciex QTRAP 4000 or 6500 MS/MS system equipped with an LC system with a binary pump, a solvent degasser, a thermostatted column compartment and a multiplate autosampler.
Analysis software: Phoenix® WinNonlin® 8.3 (Pharsight, Certara, Mountainview, CA).
Analysis methods: non-compartmental analysis, linear up/log down trapezoidal rule.
PK parameters: t1/2 and AUC0-tlast were be estimated.
Volume/time-point: ˜0.25 mL (saphenous vein).
PK parameters: t1/2 and AUC0-tlast were estimated.

The next series addresses T1, human 5-HT1A receptor (Homo sapiens, UniProt P08908).
T1 sequence (P08908 1-422): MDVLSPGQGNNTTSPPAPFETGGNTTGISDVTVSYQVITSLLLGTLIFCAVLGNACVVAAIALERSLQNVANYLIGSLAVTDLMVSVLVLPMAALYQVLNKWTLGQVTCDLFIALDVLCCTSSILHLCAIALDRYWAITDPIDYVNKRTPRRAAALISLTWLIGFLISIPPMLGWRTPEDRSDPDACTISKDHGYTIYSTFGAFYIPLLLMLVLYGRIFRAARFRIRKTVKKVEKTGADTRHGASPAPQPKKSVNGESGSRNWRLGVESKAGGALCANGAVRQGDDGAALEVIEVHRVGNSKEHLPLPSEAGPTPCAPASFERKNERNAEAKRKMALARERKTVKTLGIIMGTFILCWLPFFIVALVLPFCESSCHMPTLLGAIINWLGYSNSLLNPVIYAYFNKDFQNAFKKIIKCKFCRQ
Description: Human 5-HT1A radioligand binding assay ([3H]-8-Hydroxy-DPAT). Set-up: expressed in transfected cells; host or cells: HTR1A&Gα15-CHO. Here is the method: The objective of this study was to evaluate the binding properties of test compounds on 5-hydroxytryptamine receptor 1A (5-HT1A).
1. The assay buffer was prepared following Table 21 below.
2. 8 doses of reference and test compounds were prepared starting from 10 mM stock solution as required by 5-fold serial dilutions with 100% (v/v) DMSO.
3. UniFilter-96 GF/B plate was pretreated: • i. 50 μl/well of 0.5% (v/v) PEI was added to UniFilter-96 G F/B plates. The plates were sealed and incubated at 4° C. for 3 hrs. • ii. After incubation, the plates were washed 3 times with ice-cold wash buffer (50 mM Tris, pH7.4).
4. Assay plate was prepared: • i. Cell membrane was diluted with assay buffer and 100 μl/well was added to 96 round well plates to reach a concentration of 20 μg/well. • ii. 8 concentrations of reference or test compounds were prepared and 50 μl/well was added to 96 round deep well plates. • iii. [3H]-8-Hydroxy-DPAT was diluted with assay buffer to 2 nM (4×final concentration) and 50 μl/well was added to 96 round well plates.
5. The plate was centrifuged at 1000 rpm for 30 secs and then agitated at 600 rpm, R.T. for 5 min.
6. The plates were sealed, and the plate was incubated at 27° C. for 90 min.
7. The incubation was stopped by vacuum filtration onto GF/B filter plates followed by 4 times washing with ice-cold wash buffer (50 mM Tris, pH7.4).
9. The filter plates were sealed and 40 μl/well of scintillation cocktail was added.
10. The plate was read by using a Microbeta^2 microplate counter.
1. For reference and test compounds, the results were expressed as % Inhibition, using the normalization equation: N=100-100x(U-C2)/(C1-C2), where U is the unknown value, C1 is the average of high controls, and C2 is the average of low controls.
2. The IC50 was determined by fitting percentage of inhibition as a […] of compound concentrations with Hill equation using XLfit.
The objective of this study was to evaluate the binding properties of test compounds on 5-hydroxytryptamine receptor 1A (5-HTA).
1. The assay buffer was prepared following Table 50 below.
3. UniFilter-96 G FIB plate was pretreated: • i. 50 μl/well of 0.5% (v/v) PEI was added to UniFilter-96 G FIB plates. The plates were sealed and incubated at 4° C. for 3 hrs. • ii. After incubation, the plates were washed 3 times with ice-cold wash buffer (50 mM Tris, pH7.4).
6. The plates were sealed and the plate was incubated at 27° C. for 90 min.

Where [2] appears, read: I-17 1.33 mg/kg i.v., individual rats R07-R09, 1.33 mg/kg.
Where [3] appears, read: 1.33 mg/kg, I-17 1.33 mg/kg i.v., Mean ± SD.
The mark [4] stands for this setting: 1.33 mg/kg, I-17 1.33 mg/kg i.v., individual rats R07-R09.
Setting [5] is: I-19 1.2 mg/kg i.v., individual rats R07-R09, 1.2 mg/kg.
Where [6] appears, read: 1.2 mg/kg, I-19 1.2 mg/kg i.v., individual rats R07-R09.

Several values for one entry are separate records, joined by “and”; a condition that tells them apart may be missing. Identical values can stand only once. Like-named read-outs stand apart in the source and are kept apart here.

Regarding `CSc1ccc2[nH]cc(CCN(C(C)C)C(C)C)c2c1` [Compound I-17, N-Isopropyl-N-(2-(5-(methylthio)-1H-indol-3-yl)ethyl)propan-2-amine], the “Plasma concentration” value is 197 ng/mL and 259 ng/mL in series [1] (I-17 1.33 mg/kg i.v., 0.25 h, individual rats R07-R09, 1.33 mg/kg); 89.3 ng/mL and 120 ng/mL in series [1] (I-17 1.33 mg/kg i.v., 1 h, individual rats R07-R09, 1.33 mg/kg); 17.7 ng/mL and 15.6 ng/mL in series [1] (I-17 1.33 mg/kg i.v., 4 h, individual rats R07-R09, 1.33 mg/kg). The “AUC0-tlast” value in series [1] (setting [2]) is 363 ng·h/mL. Moreover, the “Apparent t1/2” value in series [1] (setting [2]) is 67.8 min and 57 min. The concentration at 0.25 h in series [1] (1.33 mg/kg, I-17 1.33 mg/kg i.v., 0.25 h, Mean ± SD) came to 198 ± 60 ng/mL; in series [1] (1.33 mg/kg, I-17 1.33 mg/kg i.v., 0.25 h, individual rats R07-R09) it was 139 ng/mL. In addition, the concentration at 1 h in series [1] (1.33 mg/kg, I-17 1.33 mg/kg i.v., 1 h, Mean ± SD) worked out at 103 ± 15.5 ng/mL; in series [1] (1.33 mg/kg, I-17 1.33 mg/kg i.v., 1 h, individual rats R07-R09) it was 101 ng/mL. In addition, the concentration at 4 h was 19.7 ± 5.39 ng/mL in series [1] (1.33 mg/kg, I-17 1.33 mg/kg i.v., 4 h, Mean ± SD) and 25.8 ng/mL in series [1] (1.33 mg/kg, I-17 1.33 mg/kg i.v., 4 h, individual rats R07-R09). In addition, the half-life was 72.6 ± 18.1 min in series [1] (setting [3]) and 92.4 min in series [1] (setting [4]). Further, the AUC(0-t) in series [1] (setting [3]) came to 315 ± 41.4 ng·h/mL; in series [1] (setting [4]) it was 291 ng·h/mL. Further, the IC50 on human 5-HT1A receptor is 46 nM.

For the compound `CSc1ccc2[nH]cc(CCN(C)C(C)C)c2c1` [Compound I-19, N-Methyl-N-(2-(5-(methylthio)-1H-indol-3-yl)ethyl)propan-2-amine], the “Plasma concentration” value in series [1] (I-19 1.2 mg/kg i.v., 0.25 h, individual rats R07-R09, 1.2 mg/kg) is 13.4 ng/mL and 70.3 ng/mL and 84.4 ng/mL; in series [1] (I-19 1.2 mg/kg i.v., 1 h, individual rats R07-R09, 1.2 mg/kg) it was 34.4 ng/mL and 41.4 ng/mL; in series [1] (I-19 1.2 mg/kg i.v., 4 h, individual rats R07-R09, 1.2 mg/kg) it was 4.95 ng/mL and 4.34 ng/mL. The “AUC0-tlast” value in series [1] (setting [5]) is 103 ng·h/mL and 118 ng·h/mL. Moreover, the “Apparent t1/2” value in series [1] (setting [5]) is 53.3 min. The concentration at 0.25 h in series [1] (1.2 mg/kg, I-19 1.2 mg/kg i.v., 0.25 h, Mean ± SD) was 56 ± 37.6 ng/mL. Further, the concentration at 1 h was 35.4 ± 5.57 ng/mL in series [1] (1.2 mg/kg, I-19 1.2 mg/kg i.v., 1 h, Mean ± SD) and 30.4 ng/mL in series [1] (1.2 mg/kg, I-19 1.2 mg/kg i.v., 1 h, individual rats R07-R09). In addition, the concentration at 4 h amounted to 5.35 ± 1.26 ng/mL in series [1] (1.2 mg/kg, I-19 1.2 mg/kg i.v., 4 h, Mean ± SD) and 6.76 ng/mL in series [1] (1.2 mg/kg, I-19 1.2 mg/kg i.v., 4 h, individual rats R07-R09). The AUC(0-t) in series [1] (1.2 mg/kg, I-19 1.2 mg/kg i.v., Mean ± SD) worked out at 96.1 ± 26.4 ng·h/mL; in series [1] (setting [6]) it was 66.9 ng·h/mL. Besides, the half-life in series [1] (setting [6]) was 60 min; in series [1] (1.2 mg/kg, I-19 1.2 mg/kg i.v., mean (n = 2)) it was 56.8 min. This compound also yielded an IC50 on human 5-HT1A receptor of 17 nM.
